# Results as given in ChEMBL document CHEMBL1201862, “PubChem BioAssay data set” (2004).
# Active and inactive are the calls of the source.
# Legend:
# [1] = A cytotoxicity screen of small molecule inhibitors of the PhoP region in Salmonella typhi identified in the primary screen. [Related pubchem assays: 1850, 1864, 1985 ]; assay type: functional
# [2] = Luminescence Cell-Based Dose Confirmation HTS to Identify Inhibitors of Platelet Dense Granule Release. [Related pubchem assays: 1663 (Primary HTS), 1678 (Summary of Project)]; assay type: functional
# [3] = target: Luciferin 4-monooxygenase (Photinus pyralis, UniProt P08659); assay: firefly luciferase enzyme inhibitors, dose response, biochemical, luminescence (AID 1891)
# [4] = target: T1, Mucolipin-3 (Homo sapiens, UniProt Q8TDD5); assay: Dose response cell-based high-throughput screening assay for agonists of the transient receptor potential channel ML3 (TRPML3). [Related pubchem assays: 1526, 1424, 1448 ]; assay type: functional
# T1 sequence (Q8TDD5 whole entry): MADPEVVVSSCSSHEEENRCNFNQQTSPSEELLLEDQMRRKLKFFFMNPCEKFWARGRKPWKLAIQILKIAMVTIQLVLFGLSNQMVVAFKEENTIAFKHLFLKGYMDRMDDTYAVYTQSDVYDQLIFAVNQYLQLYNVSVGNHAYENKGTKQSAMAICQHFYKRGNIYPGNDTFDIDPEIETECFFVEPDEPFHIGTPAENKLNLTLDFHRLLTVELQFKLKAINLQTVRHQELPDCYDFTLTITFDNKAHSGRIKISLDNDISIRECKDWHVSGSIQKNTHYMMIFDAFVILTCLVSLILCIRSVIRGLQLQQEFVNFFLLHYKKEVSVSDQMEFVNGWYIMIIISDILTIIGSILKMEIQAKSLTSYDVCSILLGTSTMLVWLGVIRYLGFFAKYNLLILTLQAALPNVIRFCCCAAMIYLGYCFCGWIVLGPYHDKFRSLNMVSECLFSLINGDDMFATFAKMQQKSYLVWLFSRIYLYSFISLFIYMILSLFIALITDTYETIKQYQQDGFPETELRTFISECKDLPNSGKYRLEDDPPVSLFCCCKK
# [5] = target: Ion channel NompC (Danio rerio, UniProt Q7T1G6); assay: Fluorescence counterscreen assay for TRPML3 agonists: dose response cell-based high-throughput screening assay to identify agonists of the transient receptor potential channel N1 (TRPN1). [Related pubchem assays: 1526, 1424, 1448 ]; assay type: functional
# [6] = target: T2, Streptokinase A (Streptococcus pyogenes serotype M1, UniProt P10520); assay: S. pyogenes streptokinase expression inhibitors, potency, dose response, plasminogen activation absorbance, OD405 (AID 1914); assay type: functional, Streptococcus pyogenes M1 GAS;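 note: secreted streptokinase activity via plasminogen activation per viability signal from cell pellet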
# T2 sequence (P10520 whole entry): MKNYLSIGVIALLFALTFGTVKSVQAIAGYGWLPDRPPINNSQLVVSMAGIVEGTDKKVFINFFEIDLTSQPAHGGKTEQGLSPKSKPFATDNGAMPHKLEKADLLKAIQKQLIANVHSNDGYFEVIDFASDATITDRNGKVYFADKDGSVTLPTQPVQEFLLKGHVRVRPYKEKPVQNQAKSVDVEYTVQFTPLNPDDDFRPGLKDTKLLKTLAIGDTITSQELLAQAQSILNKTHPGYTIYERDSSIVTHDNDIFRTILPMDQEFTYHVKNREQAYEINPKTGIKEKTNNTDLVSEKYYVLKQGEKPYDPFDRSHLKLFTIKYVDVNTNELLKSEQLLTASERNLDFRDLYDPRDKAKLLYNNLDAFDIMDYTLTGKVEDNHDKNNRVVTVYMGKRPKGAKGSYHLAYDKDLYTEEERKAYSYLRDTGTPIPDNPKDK
# [7] = cytotoxicity in KRAS-transformed pancreatic duct cells, primary screen, cell-based, fluorescence, HTS (AID 431); assay type: functional; conditions: Homo sapiens;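 note: cell line used: HPDE-C7K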
# [8] = cytotoxicity in HPDE-C7 cells, cell-based, fluorescence, HTS (AID 430); assay type: functional; conditions: Homo sapiens
# [9] = growth suppression of PTEN-null colon cells, dose response, cell-based, HCT116 PTEN knockout (AID 1047); assay type: functional;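 note: HCT116 colon tumor cells with PTEN knocked out; cells exposed to compound for 60 hours before readout; potency for loss of cell viability measured by luminescence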
# [10] = target: T3, Sentrin-specific protease 8 (Homo sapiens, UniProt Q96LD8); assay type: functional;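 note: luminescence read-out of SENP8 inhibition, dose-response confirmation following an ultra-high-throughput screen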
# T3 sequence (Q96LD8 whole entry): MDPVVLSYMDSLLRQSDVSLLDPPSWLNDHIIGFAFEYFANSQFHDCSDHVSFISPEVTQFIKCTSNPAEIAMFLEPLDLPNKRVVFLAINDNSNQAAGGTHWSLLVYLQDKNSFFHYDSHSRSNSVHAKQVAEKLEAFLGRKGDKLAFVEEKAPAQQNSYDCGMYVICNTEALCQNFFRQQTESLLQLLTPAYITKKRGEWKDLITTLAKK
# [11] = target: T4, Sentrin-specific protease 7 (Homo sapiens, UniProt Q9BQF6); assay type: functional;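 note: Luminescence-based dose-response confirmation of ultra-high-throughput screening hits, measuring inhibition of SENP7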
# T4 sequence (Q9BQF6 whole entry): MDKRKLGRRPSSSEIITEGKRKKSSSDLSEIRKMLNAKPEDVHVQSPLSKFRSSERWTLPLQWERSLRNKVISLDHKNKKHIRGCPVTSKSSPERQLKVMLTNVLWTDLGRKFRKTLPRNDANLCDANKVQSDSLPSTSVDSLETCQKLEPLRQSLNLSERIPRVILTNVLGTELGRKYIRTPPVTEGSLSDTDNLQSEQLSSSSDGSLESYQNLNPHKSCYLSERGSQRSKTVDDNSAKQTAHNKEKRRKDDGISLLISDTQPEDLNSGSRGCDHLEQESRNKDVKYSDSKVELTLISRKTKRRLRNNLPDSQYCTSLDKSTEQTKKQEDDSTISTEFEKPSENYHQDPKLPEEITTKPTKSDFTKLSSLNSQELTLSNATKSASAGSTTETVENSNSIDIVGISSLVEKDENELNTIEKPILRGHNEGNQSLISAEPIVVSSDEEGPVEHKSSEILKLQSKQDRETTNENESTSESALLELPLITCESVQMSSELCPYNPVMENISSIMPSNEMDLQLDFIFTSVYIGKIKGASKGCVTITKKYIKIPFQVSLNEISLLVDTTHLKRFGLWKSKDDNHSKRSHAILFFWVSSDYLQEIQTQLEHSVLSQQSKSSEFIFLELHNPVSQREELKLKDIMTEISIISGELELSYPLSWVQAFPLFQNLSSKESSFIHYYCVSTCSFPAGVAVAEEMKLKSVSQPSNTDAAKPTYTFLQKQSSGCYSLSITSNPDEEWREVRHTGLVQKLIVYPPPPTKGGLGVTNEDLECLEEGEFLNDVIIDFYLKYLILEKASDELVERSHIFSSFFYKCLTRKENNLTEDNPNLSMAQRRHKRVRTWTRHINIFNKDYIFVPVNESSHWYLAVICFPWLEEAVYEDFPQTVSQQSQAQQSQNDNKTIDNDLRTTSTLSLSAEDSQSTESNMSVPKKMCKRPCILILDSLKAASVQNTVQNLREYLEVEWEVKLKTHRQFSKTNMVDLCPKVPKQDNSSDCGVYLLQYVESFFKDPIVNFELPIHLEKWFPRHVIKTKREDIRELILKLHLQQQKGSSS
# [12] = target: Heat shock protein HSP 90-alpha (Homo sapiens, UniProt P07900); assay type: functional, organism-based
# [13] = target: T5, Caspase-3 (Homo sapiens, UniProt P42574); assay type: functional;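 note: Dose-response selectivity test against caspase-3 for candidate inhibitors of sentrin-specific proteases (SENPs)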
# T5 sequence (P42574 whole entry): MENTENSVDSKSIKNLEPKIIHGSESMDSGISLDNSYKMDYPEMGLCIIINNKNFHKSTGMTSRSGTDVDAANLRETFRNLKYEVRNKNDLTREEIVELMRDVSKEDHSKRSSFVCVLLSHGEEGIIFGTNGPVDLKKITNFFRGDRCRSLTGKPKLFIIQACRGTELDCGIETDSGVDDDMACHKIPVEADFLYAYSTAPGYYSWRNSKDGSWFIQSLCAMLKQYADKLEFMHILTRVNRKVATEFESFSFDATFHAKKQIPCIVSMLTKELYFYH
# [14] = tested on: Streptococcus; assay: Group A Streptococcus viability loss, dose response, counter-screen for streptokinase expression inhibitor project, luminescence, BacTiterGlo (AID 1915); assay type: functional, organism-based;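 note: potency for reduction of bacterial viability or growth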
# [15] = target: T6, Sentrin-specific protease 6 (Homo sapiens, UniProt Q9GZR1); assay type: functional;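 note: Luminescence-based dose-response confirmatory assay of SENP6 inhibition, following up an ultra-high-throughput screen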
# T6 sequence (Q9GZR1 whole entry): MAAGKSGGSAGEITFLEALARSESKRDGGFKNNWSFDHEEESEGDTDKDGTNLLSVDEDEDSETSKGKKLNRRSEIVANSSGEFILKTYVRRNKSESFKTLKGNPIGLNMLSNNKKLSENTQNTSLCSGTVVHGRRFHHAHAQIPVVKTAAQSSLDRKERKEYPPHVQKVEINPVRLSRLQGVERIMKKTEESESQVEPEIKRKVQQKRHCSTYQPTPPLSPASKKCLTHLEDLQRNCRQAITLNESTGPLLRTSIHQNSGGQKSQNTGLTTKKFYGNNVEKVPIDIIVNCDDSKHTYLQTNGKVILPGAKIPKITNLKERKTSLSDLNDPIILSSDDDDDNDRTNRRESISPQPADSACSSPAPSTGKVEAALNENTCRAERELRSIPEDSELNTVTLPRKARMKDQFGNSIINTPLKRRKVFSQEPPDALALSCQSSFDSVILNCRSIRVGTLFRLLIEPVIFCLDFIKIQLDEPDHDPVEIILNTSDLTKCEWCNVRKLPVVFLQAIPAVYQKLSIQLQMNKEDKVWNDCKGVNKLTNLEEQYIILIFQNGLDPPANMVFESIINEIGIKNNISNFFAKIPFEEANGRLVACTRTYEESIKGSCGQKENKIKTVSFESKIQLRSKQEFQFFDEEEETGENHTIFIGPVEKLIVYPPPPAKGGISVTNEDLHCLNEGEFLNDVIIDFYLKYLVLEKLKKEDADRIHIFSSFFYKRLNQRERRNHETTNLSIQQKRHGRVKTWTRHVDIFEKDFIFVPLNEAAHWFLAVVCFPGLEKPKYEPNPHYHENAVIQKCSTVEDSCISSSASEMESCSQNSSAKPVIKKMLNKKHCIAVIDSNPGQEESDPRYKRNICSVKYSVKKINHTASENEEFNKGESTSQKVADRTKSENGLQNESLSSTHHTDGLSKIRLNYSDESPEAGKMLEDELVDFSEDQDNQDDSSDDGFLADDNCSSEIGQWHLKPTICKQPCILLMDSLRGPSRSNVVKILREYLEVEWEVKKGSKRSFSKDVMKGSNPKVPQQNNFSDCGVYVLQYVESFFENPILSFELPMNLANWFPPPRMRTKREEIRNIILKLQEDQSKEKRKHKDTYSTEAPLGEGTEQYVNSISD
# [16] = tested on: Streptococcus sp. 'group A'; assay: growth inhibition of control SK(-) GAS strain, dose response, counter-screen for streptokinase expression inhibitor project, luminescence, kanamycin, BacTiterGlo, confirmation (AID 1900); assay type: functional, organism-based
# [17] = growth suppression of beta-catenin-knockout colon cells, dose response, cell-based, HCT116, human colon tumor (AID 1045); assay type: functional;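 note: HCT116 colon tumor cells with beta catenin knocked out; cells exposed to compound for 60 hours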
# [18] = target: Cytochrome P450 2C9 (Homo sapiens, UniProt P11712); conditions: Potency
# [19] = target: Induced myeloid leukemia cell differentiation protein Mcl-1 (Homo sapiens, UniProt Q07820); assay type: functional
# [20] = cells; assay type: functional
# [21] = tested on: HeLa; assay: HeLa cell cytotoxicity, dose response, cytotoxicity control for MITF activator project, CellTiter-Glo luminescence, cherry-pick samples (AID 540259); assay type: functional, cell-based; conditions: Homo sapiens
# Ion channel NompC, sequence (Q7T1G6 whole entry): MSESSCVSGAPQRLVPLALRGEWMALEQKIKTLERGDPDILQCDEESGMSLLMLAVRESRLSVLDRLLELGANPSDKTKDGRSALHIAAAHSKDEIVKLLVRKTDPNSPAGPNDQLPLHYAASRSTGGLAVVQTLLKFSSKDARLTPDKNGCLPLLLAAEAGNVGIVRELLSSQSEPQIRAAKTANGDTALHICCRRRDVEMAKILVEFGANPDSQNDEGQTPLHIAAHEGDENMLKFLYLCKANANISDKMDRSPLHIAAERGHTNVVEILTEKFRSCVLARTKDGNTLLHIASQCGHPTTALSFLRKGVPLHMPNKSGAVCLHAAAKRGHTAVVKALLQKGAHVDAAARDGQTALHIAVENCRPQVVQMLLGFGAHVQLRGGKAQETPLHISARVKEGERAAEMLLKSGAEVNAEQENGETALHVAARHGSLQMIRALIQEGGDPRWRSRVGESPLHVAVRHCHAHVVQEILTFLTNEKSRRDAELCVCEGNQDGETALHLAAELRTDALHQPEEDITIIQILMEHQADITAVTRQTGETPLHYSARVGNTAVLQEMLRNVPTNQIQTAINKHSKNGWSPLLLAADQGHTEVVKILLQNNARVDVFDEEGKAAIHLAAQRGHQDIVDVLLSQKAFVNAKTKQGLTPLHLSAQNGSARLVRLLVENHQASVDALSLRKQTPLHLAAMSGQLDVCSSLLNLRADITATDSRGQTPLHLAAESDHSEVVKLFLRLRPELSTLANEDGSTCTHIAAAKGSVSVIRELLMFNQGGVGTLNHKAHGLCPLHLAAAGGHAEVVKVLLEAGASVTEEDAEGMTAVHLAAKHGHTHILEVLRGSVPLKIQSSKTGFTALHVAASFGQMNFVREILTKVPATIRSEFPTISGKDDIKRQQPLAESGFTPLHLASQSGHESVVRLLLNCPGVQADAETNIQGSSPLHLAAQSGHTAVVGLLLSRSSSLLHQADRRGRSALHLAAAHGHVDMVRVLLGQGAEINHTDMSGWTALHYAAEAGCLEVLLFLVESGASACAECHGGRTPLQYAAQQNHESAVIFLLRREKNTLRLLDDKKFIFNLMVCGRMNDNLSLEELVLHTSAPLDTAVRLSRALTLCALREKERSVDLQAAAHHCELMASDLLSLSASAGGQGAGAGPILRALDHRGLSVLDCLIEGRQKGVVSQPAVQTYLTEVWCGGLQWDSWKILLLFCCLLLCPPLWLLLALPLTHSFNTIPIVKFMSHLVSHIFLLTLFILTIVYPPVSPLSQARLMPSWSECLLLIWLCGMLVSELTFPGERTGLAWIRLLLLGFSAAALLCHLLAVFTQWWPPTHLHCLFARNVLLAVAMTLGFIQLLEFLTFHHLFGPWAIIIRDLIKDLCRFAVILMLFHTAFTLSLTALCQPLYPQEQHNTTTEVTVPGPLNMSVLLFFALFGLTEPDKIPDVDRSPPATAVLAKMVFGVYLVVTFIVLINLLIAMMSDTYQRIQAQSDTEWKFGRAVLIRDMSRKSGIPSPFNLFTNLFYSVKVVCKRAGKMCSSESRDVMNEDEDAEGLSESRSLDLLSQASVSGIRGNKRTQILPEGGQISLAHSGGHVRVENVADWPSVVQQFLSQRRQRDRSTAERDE
# Induced myeloid leukemia cell differentiation protein Mcl-1, sequence (Q07820 whole entry): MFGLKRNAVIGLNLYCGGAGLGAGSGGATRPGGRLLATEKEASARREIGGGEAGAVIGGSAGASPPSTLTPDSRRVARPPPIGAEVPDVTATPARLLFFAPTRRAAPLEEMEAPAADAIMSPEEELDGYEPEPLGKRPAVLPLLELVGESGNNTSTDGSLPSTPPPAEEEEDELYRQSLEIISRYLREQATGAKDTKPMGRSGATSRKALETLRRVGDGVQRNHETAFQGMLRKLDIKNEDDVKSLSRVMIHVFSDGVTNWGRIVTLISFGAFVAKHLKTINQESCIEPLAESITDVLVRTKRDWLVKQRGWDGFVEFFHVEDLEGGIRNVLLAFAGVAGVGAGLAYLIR
# Cytochrome P450 2C9, sequence (P11712 whole entry): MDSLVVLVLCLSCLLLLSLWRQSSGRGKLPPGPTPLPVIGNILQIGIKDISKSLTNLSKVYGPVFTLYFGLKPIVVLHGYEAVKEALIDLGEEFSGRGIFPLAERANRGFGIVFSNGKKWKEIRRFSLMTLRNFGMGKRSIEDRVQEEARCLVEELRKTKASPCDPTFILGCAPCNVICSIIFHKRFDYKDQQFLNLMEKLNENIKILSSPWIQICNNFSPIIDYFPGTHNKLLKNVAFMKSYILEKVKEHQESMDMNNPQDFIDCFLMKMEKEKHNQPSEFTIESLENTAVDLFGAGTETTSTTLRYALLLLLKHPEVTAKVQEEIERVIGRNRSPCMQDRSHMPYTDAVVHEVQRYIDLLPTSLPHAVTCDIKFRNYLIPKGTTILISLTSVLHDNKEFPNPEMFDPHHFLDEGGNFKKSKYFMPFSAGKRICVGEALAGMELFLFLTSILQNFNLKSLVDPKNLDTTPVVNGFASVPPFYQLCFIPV
# Luciferin 4-monooxygenase, sequence (P08659 whole entry): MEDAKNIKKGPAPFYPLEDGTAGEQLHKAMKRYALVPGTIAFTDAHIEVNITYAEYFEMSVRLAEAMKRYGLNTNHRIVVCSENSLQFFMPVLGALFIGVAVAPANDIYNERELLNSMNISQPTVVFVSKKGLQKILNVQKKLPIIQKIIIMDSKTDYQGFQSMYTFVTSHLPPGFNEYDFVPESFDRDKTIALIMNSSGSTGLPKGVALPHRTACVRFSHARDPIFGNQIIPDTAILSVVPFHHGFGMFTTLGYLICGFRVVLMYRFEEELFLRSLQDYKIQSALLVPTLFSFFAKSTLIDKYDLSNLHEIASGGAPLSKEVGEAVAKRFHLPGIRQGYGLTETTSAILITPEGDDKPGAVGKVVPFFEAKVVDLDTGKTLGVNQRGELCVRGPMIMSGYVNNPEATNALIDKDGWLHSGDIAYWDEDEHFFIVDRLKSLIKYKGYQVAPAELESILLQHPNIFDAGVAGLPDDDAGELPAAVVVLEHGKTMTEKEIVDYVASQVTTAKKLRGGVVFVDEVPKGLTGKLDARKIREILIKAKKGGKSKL
compound,measurement,setting,value
CCN(CC)S(=O)(=O)c1cc(NC(=O)C2Cc3ccccc3C(=O)O2)ccc1C (stereo unspecified),EC50,[1],> 50 µM (active)
same,EC50,[2],> 112 µM (not active)
same,EC50,[3],> 112 µM (not active)
Cc1nn(C(C)(C)C)c(OC(=O)C2CCCC2)c1S(=O)(=O)c1ccccc1,EC50,[4],> 9.99 µM (not active)
same,EC50,[5],> 29.9 µM (not active)
COc1ccc(O)c(-c2cc(-c3cccc(Br)c3)[nH]n2)c1,EC50,[6],> 150 µM (inconclusive)
same,EC50,[7],4.73 µM (active)
same,EC50,[8],8.85 µM (active)
same,EC50,[9],25.4 µM (active)
same,IC50,[10],29.1 µM (active)
same,IC50,[11],11.3 µM (active)
same,AC50,[12],8.06 µM (active)
same,IC50,[13],97.7 µM (active)
same,EC50,[14],12.4 µM (active)
same,IC50,[15],26.5 µM (active)
same,EC50,[16],6.53 µM (active)
same,EC50,[17],16.6 µM (active)
N#Cc1nc(-c2ccc(OCc3ccccc3)cc2)oc1NCCCN1CCOCC1,EC50,[7],13.6 µM (active)
same,EC50,[8],13 µM (active)
O=C(C1Cc2ccccc2CN1S(=O)(=O)c1ccc(F)cc1)N1CCCCCC1 (stereo unspecified),EC50,[4],3.72 µM (active)
same,EC50,[5],> 29.9 µM (not active)
CC(C)C[C@@H](CC(=O)N[C@H](CC(=O)N[C@@H]1CCCC[C@H]1C(=O)N[C@H](CC(=O)N[C@@H](CCC(=O)O)CC(=O)O)Cc1ccccc1)C(C)C)NC(=O)[C@@H]1CCCC[C@H]1N,AC50,[18],39.8 µM (inconclusive)
COC(=O)c1ccc(Cl)cc1N(Cc1c(F)cccc1Cl)S(C)(=O)=O,EC50,[4],2.49 µM (active)
same,EC50,[5],6.15 µM (active)
C=CCOc1ccc(Cl)cc1CNC1CCCC1,EC50,[1],> 50 µM (active)
CCOC(=O)c1cc(-c2ccco2)nc2c1c(C)nn2-c1cccc(Cl)c1,IC50,[19],2.51 µM (active)
COc1ccc(-c2noc(CCC(=O)Nc3cccc(C)c3)n2)cc1,EC50,[1],> 50 µM (active)
same,IC50,[20],15.9 µM (active)
[O-][n+]1onc2c1CCC(=N/O)/C2=N\Nc1ccccc1,IC50,[19],4.87 µM (active)
COc1cc(O)c2c(=O)cc(-c3ccccc3)oc2c1 [TECHTOCHRYSIN],AC50,[21],46.2 µM (active)
same,AC50,[18],2.51 µM (inconclusive)
